Experiments:
T cell = assay: Test on T cell blast transformation reaction (1), spleen cells of treated mice; format: in vivo, C3H/He mouse; settings: for Relative activity (%): no administration = 100
Description: In the same manner as in Example 36, OPQ was administered to C3H/He mouse and the mouse was bred. Dosage of OPQ for one administration per one mouse was 0.2 ml of OPQ solution containing 0.5 mg/ml of OPQ for group B and 0.2 ml of the solution containing 1.0 mg/ml of OPQ for group C and 0.2 ml of physiological saline was administered for group A.
On the 8th day from starting of experiment, mouse was anesthetized with ether and blood was drawn from carotid artery and spleen was aseptically extracted.
Cells of the spleen of respective groups were broken up and these cells were floated on tris-NH4Cl hemolytic solution warmed to 37°C and left for 5 minutes at 37°C to hemolyze erythrocytes, followed by washing twice with cold Hanks solution. The cells were suspended in RPMI medium at 4 x 10^6 cells/ml and the suspension was put in a flat bottom microplate of 96 holes. Culture was carried out in the air containing 5 % of CO2 at 37°C using concanavalin A (Type IV Sigma C2010) in an amount of 0.5 µg/ml or 2 µg/ml as mitogen. After 63 hours from starting of culture, ^3H-thymidine was added in an amount of 2.5 µci/ml and culturing was carried out for further 9 hours. Thereafter, cells were gathered on a glass fiber filter by cell harvester and ^3H on this filter was measured by a liquid scintillation counter.
As control, same four culturings were conducted under the same conditions without adding concanavalin A.
Values in the table are average values of intake amount (cpm) of ^3H in culture under four same conditions.
(§1) In Examples 36 - 40, macrophage activity was examined according to chemotaxis of peritoneal macrophage (literature 1) and activity of T cell and that of B cell were examined according to blast transformation reaction using concanavalin A and lipopolysaccharide, (LPS) as mitogen (literature 2). Literature 1: "Function of Macrophage and Method of Measurement of Function", pages 61-65 1985), edited by Educational Committee of Japan Bacteriological Society and published from Saikon Shuppan Co.) Literature 2: "New Method of Searching of Function of Lymphocytes", pages 350-355 (1987) edited by Junichi Yada and Michio Fujiwara and published from Chugai Igaku Co.

B cell = assay: Test on B cell blast transformation reaction, spleen cells of treated mice; format: in vivo, C3H/He mice; settings: for Relative activity (%): no administration = 100
Description: Cells of spleen of C3H/He mice to which OPQ was administered were obtained in the same manner as in Example 38.
Further, intake amount of ^3H-thymidine was examined in the same manner as in Example 38 except that 25 µg/ml or 50 µg/ml of lipopolysaccharide (LPS WE E. coli 0111, Difco) was used in place of the concanavalin A as mitogen. Values in the table are average values of intake amount (cpm) of ^3H in culture under four same conditions.
as §1

kidney = assay: Toxicity to kidney determined by blood examination; format: in vivo, mice; settings: serum
Procedure, shortened: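 One day after dosing, mice fasted 18 h with water only, then blood taken. Serum glucose, urea nitrogen and creatinine measured by dry-chemistry slides; values are means of eight mice.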

[1] = target: aldose reductase of kidney (Canis lupus familiaris, UniProt A0A8I3P2L6); assay: Inhibitory effect on aldose reductase of kidney; format: biochemical, dog; settings: read-out: Degree of inhibition for aldose reductase (%)
Procedure, shortened: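 Aldose reductase was purified from dog kidney medulla. Activity was measured as NADPH consumption (A340 decrease) with DL-glyceraldehyde substrate and 3mM NADPH stock, in 0.1M phosphate buffer pH 6.2 at 25°C. One unit consumes 1 µmole NADPH/min.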

## O=C(O)c1cc(C(=O)O)c2c(n1)c1ncoc1c1cc(C(=O)O)[nH]c12 [OPQ, oxazopyrroloquinoline]
T cell; 5 mg/kg mouse x 7 days, Concanavalin A 0.5µg/ml
  Relative activity (%): 137%
T cell; 5 mg/kg mouse x 7 days, Concanavalin A 2.0µg/ml
  Relative activity (%): 146%
T cell; 5 mg/kg mouse x 7 days, concanavalin 0 µg/ml, no administration 7312
  intake amount (cpm) of ^3H: 10796 cpm
T cell; 5 mg/kg mouse x 7 days, concanavalin 0.5 µg/ml, no administration 11637
  intake amount (cpm) of ^3H: 15942 cpm
T cell; 5 mg/kg mouse x 7 days, concanavalin 2 µg/ml, no administration 96188
  intake amount (cpm) of ^3H: 140376 cpm
T cell; 10 mg/kg mouse x 7 days, Concanavalin A 0.5µg/ml
  Relative activity (%): 189%
T cell; 10 mg/kg mouse x 7 days, Concanavalin A 2.0µg/ml
  Relative activity (%): 150%
T cell; 10 mg/kg mouse x 7 days, concanavalin 0 µg/ml, no administration 7312
  intake amount (cpm) of ^3H: 9124 cpm
T cell; 10 mg/kg mouse x 7 days, concanavalin 0.5 µg/ml, no administration 11637
  intake amount (cpm) of ^3H: 21965 cpm
T cell; 10 mg/kg mouse x 7 days, concanavalin 2 µg/ml, no administration 96188
  intake amount (cpm) of ^3H: 144171 cpm
B cell; 5mg/kg mouse x 7 days, Lipopolysaccharide 25 µg/ml
  Relative activity (%): 108%
B cell; 5mg/kg mouse x 7 days, Lipopolysaccharide 50 µg/ml
  Relative activity (%): 109%
B cell; 5mg/kg mouse x 7 days, Lipopolysaccharide (LPS) 0 µg/ml, no administration 6562
  intake amount (cpm) of ^3H: 9303 cpm
B cell; 5mg/kg mouse x 7 days, Lipopolysaccharide (LPS) 25 µg/ml, no administration 34557
  intake amount (cpm) of ^3H: 37434 cpm
B cell; 5mg/kg mouse x 7 days, Lipopolysaccharide (LPS) 50 µg/ml, no administration 42247
  intake amount (cpm) of ^3H: 46193 cpm
B cell; 10mg/kg mouse x 7 days, Lipopolysaccharide 25 µg/ml
  Relative activity (%): 121%
B cell; 10mg/kg mouse x 7 days, Lipopolysaccharide 50 µg/ml
  Relative activity (%): 126%
B cell; 10mg/kg mouse x 7 days, Lipopolysaccharide (LPS) 0 µg/ml, no administration 6562
  intake amount (cpm) of ^3H: 9301 cpm
B cell; 10mg/kg mouse x 7 days, Lipopolysaccharide (LPS) 25 µg/ml, no administration 34557
  intake amount (cpm) of ^3H: 41876 cpm
B cell; 10mg/kg mouse x 7 days, Lipopolysaccharide (LPS) 50 µg/ml, no administration 42247
  intake amount (cpm) of ^3H: 53267 cpm
kidney; 40 mg/kg mouse intraperitoneally, Table 2, no administration 0.8
  Creatinine: 0.7 mg/dL
kidney; 40 mg/kg mouse intraperitoneally, Table 2, no administration 24
  Urea nitrogen: 25 mg/dL
kidney; 40 mg/kg mouse intraperitoneally, Table 2, no administration 78
  Glucose: 90 mg/dL
kidney; 80 mg/kg mouse intraperitoneally, Table 2, no administration 0.8
  Creatinine: 0.8 mg/dL
kidney; 80 mg/kg mouse intraperitoneally, Table 2, no administration 24
  Urea nitrogen: 23 mg/dL
kidney; 80 mg/kg mouse intraperitoneally, Table 2, no administration 78
  Glucose: 86 mg/dL
kidney; 150 mg/kg mouse intraperitoneally, Table 3, no administration 0.7
  Creatinine: 0.8 mg/dL
kidney; 150 mg/kg mouse intraperitoneally, Table 3, no administration 28
  Urea nitrogen: 32 mg/dL
kidney; 150 mg/kg mouse intraperitoneally, Table 3, no administration 105
  Glucose: 106 mg/dL
kidney; 160 mg/kg mouse intraperitoneally, Table 2, no administration 0.8
  Creatinine: 0.7 mg/dL
kidney; 160 mg/kg mouse intraperitoneally, Table 2, no administration 24
  Urea nitrogen: 27 mg/dL
kidney; 160 mg/kg mouse intraperitoneally, Table 2, no administration 78
  Glucose: 90 mg/dL
kidney; 200 mg/kg mouse intraperitoneally, Table 2, no administration 0.8
  Creatinine: 0.8 mg/dL
kidney; 200 mg/kg mouse intraperitoneally, Table 2, no administration 24
  Urea nitrogen: 28 mg/dL
kidney; 200 mg/kg mouse intraperitoneally, Table 2, no administration 78
  Glucose: 85 mg/dL
kidney; 300 mg/kg mouse intraperitoneally, Table 3, no administration 0.7
  Creatinine: 0.8 mg/dL
kidney; 300 mg/kg mouse intraperitoneally, Table 3, no administration 28
  Urea nitrogen: 29 mg/dL
kidney; 300 mg/kg mouse intraperitoneally, Table 3, no administration 105
  Glucose: 80 mg/dL
kidney; 400 mg/kg mouse intraperitoneally, Table 3, no administration 0.7
  Creatinine: 0.8 mg/dL
kidney; 400 mg/kg mouse intraperitoneally, Table 3, no administration 28
  Urea nitrogen: 30 mg/dL
kidney; 400 mg/kg mouse intraperitoneally, Table 3, no administration 105
  Glucose: 94 mg/dL
kidney; 600 mg/kg mouse intraperitoneally, Table 3, no administration 0.7
  Creatinine: 0.8 mg/dL
kidney; 600 mg/kg mouse intraperitoneally, Table 3, no administration 28
  Urea nitrogen: 34 mg/dL
kidney; 600 mg/kg mouse intraperitoneally, Table 3, no administration 105
  Glucose: 74 mg/dL
[1]; concentration 1x10^-7 M
  inhibition at 0.1 µM: 51.9%
[1]; concentration 2x10^-7 M
  inhibition at 0.2 µM: 62.1%
[1]; concentration 5x10^-8 M
  inhibition at 0.05 µM: 39.3%
